Test results from patent US11566007B2, “Ras inhibitors” (Revolution Medicines, Inc., priority 2019, dated 2023).

Experiments:
[1] = test system: NCI-H358 cells (K-Ras G12C); assay: Potency assay: pERK in NCI-H358 cells; format: cell-based, human; conditions: Homo sapiens, NCI-H358; H358 KRAS G12C; read-out: pERK EC50
Summary of the method: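 Inhibition of cellular pERK after a 4 h treatment, detected by AlphaLISA or In-Cell Western. IC50 from a four-parameter concentration-response fit.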

NCI-H358 (K-Ras G12C) = assay: CellTiter-Glo cell viability assay, NCI-H358; format: cell-based, human; conditions: Homo sapiens, NCI-H358, 120 h, NCI-H358, 5-day treatment; class symbols; read-out: Additional H358 Cell Viability assay data (K-Ras G12C, IC50)
Summary of the method: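 Compounds were dispensed directly onto K-Ras mutant cells and incubated until day 5, then plates were equilibrated to room temperature for about 30 minutes before CellTiter-Glo luminescence. Signals were normalized as (sample/average DMSO)*100 and fitted by four-parameter logistic fit.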

KRAS G13D = KRAS G13D (Homo sapiens (Human), UniProt P01116+P62937, G13D); assay: Ras-Raf (BRAF RBD) disruption / FRET / MOA assay, KRAS G13D; format: biochemical; conditions: read-out: IC50* KRAS G13D FRET data
Summary of the method: (§1)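 TR-FRET read-out: a drop in ratio relative to DMSO wells marks disruption of the Ras:RAF complex, reported as IC50. Compounds (3-fold series, 10 points, top 30 μM final) incubated 3 h at 25° C before Eu-anti-His 10 nM and APC-anti-GST 50 nM, 1.5 h more.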

K-Ras G12C = K-Ras G12C (Homo sapiens (Human), UniProt P01116+P62937, G12C); assay: Ras-Raf (BRAF RBD) disruption / FRET / MOA assay, KRAS G12C; format: biochemical; conditions: KRAS G12C; Ras-Raf disruption/FRET/MOA assay; read-out: IC50* KRAS G12C FRET data
Summary of the method: as §1

KRAS G12D = KRAS G12D (Homo sapiens (Human), UniProt P01116+P62937, G12D); assay: Ras-Raf (BRAF RBD) disruption / FRET / MOA assay, KRAS G12D; format: biochemical; conditions: Ras-Raf disruption/FRET/MOA assay; class symbols; read-out: KRAS G12D FRET data IC50
Summary of the method: as §1

KRAS WT = KRAS WT (Homo sapiens (Human), UniProt P01116+P62937); assay: Ras-Raf (BRAF RBD) disruption / FRET / MOA assay, KRAS WT; format: biochemical; conditions: read-out: IC50* KRAS WT FRET data
Summary of the method: as §1

KRAS G12V = KRAS G12V (Homo sapiens (Human), UniProt P01116+P62937, G12V); assay: Ras-Raf (BRAF RBD) disruption / FRET / MOA assay, KRAS G12V; format: biochemical; conditions: read-out: IC50* KRAS G12V FRET data
Summary of the method: as §1

K-Ras G13C = K-Ras G13C (Homo sapiens (Human), UniProt P01116+P62937, G13C); assay: Ras-Raf (BRAF RBD) disruption / FRET / MOA assay, KRAS G13C; format: biochemical; conditions: KRAS G13C; Ras-Raf disruption/FRET/MOA assay; read-out: IC50* KRAS G13C FRET data
Summary of the method: as §1

KRAS G12S = KRAS G12S (Homo sapiens (Human), UniProt P01116+P62937, G12S); assay: Ras-Raf (BRAF RBD) disruption / FRET / MOA assay, KRAS G12S; format: biochemical; conditions: Ras-Raf disruption/FRET/MOA assay; class symbols; read-out: KRAS G12S FRET data IC50
Summary of the method: as §1

NRAS G12C = NRAS G12C (Homo sapiens (Human), UniProt P01111+P62937, G12C); assay: Ras-Raf (BRAF RBD) disruption / FRET / MOA assay, NRAS G12C; format: biochemical; conditions: read-out: IC50* NRAS G12C FRET data
Summary of the method: as §1

Sequence of K-Ras G12C (P01116-2 other isoform, or with tags, fused parts or gaps G12C): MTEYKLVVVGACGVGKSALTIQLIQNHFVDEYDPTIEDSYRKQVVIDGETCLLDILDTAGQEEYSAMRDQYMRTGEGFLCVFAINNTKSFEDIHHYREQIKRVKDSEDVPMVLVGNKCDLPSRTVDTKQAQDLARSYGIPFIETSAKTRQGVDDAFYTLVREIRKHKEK
Sequence of K-Ras G12C (P62937 whole entry): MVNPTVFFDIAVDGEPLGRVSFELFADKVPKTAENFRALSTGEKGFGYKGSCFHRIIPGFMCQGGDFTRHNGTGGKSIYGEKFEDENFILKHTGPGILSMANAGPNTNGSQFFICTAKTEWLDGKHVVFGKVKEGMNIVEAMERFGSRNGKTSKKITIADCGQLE
Sequence of KRAS G12S (P01116-2 other isoform, or with tags, fused parts or gaps G12S): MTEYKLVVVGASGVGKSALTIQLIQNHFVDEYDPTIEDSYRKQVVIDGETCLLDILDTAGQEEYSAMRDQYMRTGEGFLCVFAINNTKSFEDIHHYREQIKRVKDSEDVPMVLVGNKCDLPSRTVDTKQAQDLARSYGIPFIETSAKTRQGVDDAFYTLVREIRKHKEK
Sequence of KRAS G12S (P62937 whole entry): as the sequence (P62937 whole entry) above
Sequence of NRAS G12C (P01111 whole entry G12C): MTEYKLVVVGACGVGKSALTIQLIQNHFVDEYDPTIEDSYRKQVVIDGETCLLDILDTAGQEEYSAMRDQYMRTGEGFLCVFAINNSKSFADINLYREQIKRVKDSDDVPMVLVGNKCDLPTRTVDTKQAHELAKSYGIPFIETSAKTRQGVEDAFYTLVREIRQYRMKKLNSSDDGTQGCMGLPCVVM
Sequence of NRAS G12C (P62937 whole entry): as the sequence (P62937 whole entry) above
Sequence of KRAS WT (P01116-2 other isoform, or with tags, fused parts or gaps): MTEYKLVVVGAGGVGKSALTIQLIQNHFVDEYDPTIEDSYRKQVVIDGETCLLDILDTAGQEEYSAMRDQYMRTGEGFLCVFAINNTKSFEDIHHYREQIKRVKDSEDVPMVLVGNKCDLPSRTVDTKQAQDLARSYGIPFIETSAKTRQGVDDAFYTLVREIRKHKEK
Sequence of KRAS WT (P62937 whole entry): as the sequence (P62937 whole entry) above
Sequence of KRAS G13D (P01116-2 other isoform, or with tags, fused parts or gaps G13D): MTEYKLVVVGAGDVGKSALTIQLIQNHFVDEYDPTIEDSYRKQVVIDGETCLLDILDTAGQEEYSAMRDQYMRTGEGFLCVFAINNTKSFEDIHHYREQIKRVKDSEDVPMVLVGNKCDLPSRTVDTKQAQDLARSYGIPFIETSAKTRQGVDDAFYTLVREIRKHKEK
Sequence of KRAS G13D (P62937 whole entry): as the sequence (P62937 whole entry) above
Sequence of KRAS G12D (P01116-2 other isoform, or with tags, fused parts or gaps G12D): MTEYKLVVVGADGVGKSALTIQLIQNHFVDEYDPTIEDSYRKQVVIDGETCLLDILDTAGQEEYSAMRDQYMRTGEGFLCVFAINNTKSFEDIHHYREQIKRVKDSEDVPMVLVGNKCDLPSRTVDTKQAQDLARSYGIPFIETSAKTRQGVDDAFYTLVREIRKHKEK
Sequence of KRAS G12D (P62937 whole entry): as the sequence (P62937 whole entry) above
Sequence of KRAS G12V (P01116-2 other isoform, or with tags, fused parts or gaps G12V): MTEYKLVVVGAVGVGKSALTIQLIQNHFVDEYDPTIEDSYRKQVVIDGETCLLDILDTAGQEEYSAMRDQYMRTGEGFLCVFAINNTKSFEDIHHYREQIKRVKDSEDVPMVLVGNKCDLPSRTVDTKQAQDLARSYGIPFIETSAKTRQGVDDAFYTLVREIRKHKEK
Sequence of KRAS G12V (P62937 whole entry): as the sequence (P62937 whole entry) above
Sequence of K-Ras G13C (P01116-2 other isoform, or with tags, fused parts or gaps G13C): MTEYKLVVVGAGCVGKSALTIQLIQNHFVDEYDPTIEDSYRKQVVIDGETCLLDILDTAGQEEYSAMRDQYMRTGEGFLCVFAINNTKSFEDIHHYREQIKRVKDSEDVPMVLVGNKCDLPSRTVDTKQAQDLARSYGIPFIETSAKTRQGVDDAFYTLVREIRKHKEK
Sequence of K-Ras G13C (P62937 whole entry): as the sequence (P62937 whole entry) above

Row | SMILES | EC50 [1] | IC50 (NCI-H358 (K-Ras G12C)) | IC50 (KRAS G13D) | IC50 (K-Ras G12C) | IC50 (KRAS G12D) | IC50 (KRAS WT) | IC50 (KRAS G12V) | IC50 (K-Ras G13C) | IC50 (KRAS G12S) | IC50 (NRAS G12C)
1 | C=CC(=O)N1CC2(C1)OCN([C@H](C(=O)N[C@H]1Cc3cccc(c3)-c3ccc4c(c3)c(c(-c3cccnc3[C@H](C)OC)n4CC)CC(C)(C)COC(=O)[C@@H]3CCCN(N3)C1=O)C(C)C)C2=O (atropisomer, axis not shown) [Example A452] | < 5000 nM | < 10 nM | 1000 to 10000 nM | 10 to 100 nM | > 10000 nM | 100 to 1000 nM | 1000 to 10000 nM | 10 to 100 nM | 1000 to 10000 nM | 10 to 100 nM
2 | CO[C@@H](C)c1ncccc1-c1c2c3cc(ccc3n1CC(F)(F)F)-c1nc(cs1)C[C@H](NC(=O)[C@H](C(C)C)N(C)C(=O)[C@H]1CCN(C(=O)C#CC(C)(C)N3CCC3)C1)C(=O)N1CCC[C@H](N1)C(=O)OCC(C)(C)C2 (atropisomer, axis not shown) [Example A454] | < 5000 nM | < 10 nM | 1000 to 10000 nM | 10 to 100 nM | 1000 to 10000 nM | 100 to 1000 nM | 1000 to 10000 nM | 100 to 1000 nM | 1000 to 10000 nM | 10 to 100 nM
3 | C=CC(=O)N1CC[C@H](C(=O)N(C)[C@H](C(=O)N[C@H]2Cc3csc(n3)-c3ccc4c(c3)c(c(-c3cccnc3[C@H](C)OC)n4CC(F)(F)F)CC(C)(C)COC(=O)[C@@H]3CCCN(N3)C2=O)C(C)C)C1 (atropisomer, axis not shown) [Example A455] | < 5000 nM | 10 to 100 nM | 1000 to 10000 nM | 100 to 1000 nM | 1000 to 10000 nM | 100 to 1000 nM | 1000 to 10000 nM | 100 to 1000 nM | 100 to 1000 nM | 100 to 1000 nM
4 | CCn1c(-c2cccnc2[C@H](C)OC)c2c3cc(ccc31)-c1cc(cc(C(F)F)c1)C[C@H](NC(=O)[C@H](C1CCCC1)N(C)C(=O)[C@H]1CCN(C(=O)C#CC(C)(C)N3CCC3)C1)C(=O)N1CCC[C@H](N1)C(=O)OCC(C)(C)C2 (atropisomer, axis not shown) [Example A456] | < 5000 nM | < 10 nM | 1000 to 10000 nM | 10 to 100 nM | 1000 to 10000 nM | 1000 to 10000 nM | 1000 to 10000 nM | 1000 to 10000 nM | 1000 to 10000 nM | 10 to 100 nM
5 | C=CC(=O)N1CCC2(CC1)OCN([C@H](C(=O)N[C@H]1Cc3cccc(c3)-c3ccc4c(c3)c(c(-c3cccnc3[C@H](C)OC)n4CC)CC(C)(C)COC(=O)[C@@H]3CCCN(N3)C1=O)C(C)C)C2=O (atropisomer, axis not shown) [Example A457] | < 5000 nM | 10 to 100 nM | 1000 to 10000 nM | 100 to 1000 nM | > 10000 nM | 100 to 1000 nM | 1000 to 10000 nM | 100 to 1000 nM | 1000 to 10000 nM | 100 to 1000 nM
6 | C=CC(=O)N1C[C@@H](C(=O)N(C)[C@H](C(=O)N[C@H]2Cc3cccc(c3)-c3ccc4c(c3)c(c(-c3cccnc3[C@H](C)OC)n4CC)CC(C)(C)COC(=O)[C@@H]3CCCN(N3)C2=O)C(C)C)C(C)(C)C1 (atropisomer, axis not shown) [Example A458] | < 5000 nM | 10 to 100 nM | 1000 to 10000 nM | 10 to 100 nM | > 10000 nM | 1000 to 10000 nM | 1000 to 10000 nM | 100 to 1000 nM | 1000 to 10000 nM | 10 to 100 nM
7 | C=CC(=O)N1CC(OC[C@H](C(=O)N[C@H]2Cc3nc(cs3)-c3ccc4c(c3)c(c(-c3cccnc3[C@H](C)OC)n4CC)CC(C)(C)COC(=O)[C@@H]3CCCN(N3)C2=O)C(C)C)C1 (atropisomer, axis not shown) [Example A462] | < 5000 nM | < 10 nM | > 10000 nM | 100 to 1000 nM | > 10000 nM | 1000 to 10000 nM | 1000 to 10000 nM | 1000 to 10000 nM | 1000 to 10000 nM | 100 to 1000 nM
8 | C=CC(=O)N1CC(C(=O)N(C)[C@H](C(=O)N[C@H]2Cc3cccc(c3)-c3ccc4c(c3)c(c(-c3cccnc3[C@H](C)OC)n4CC)CC(C)(C)COC(=O)[C@@H]3CCCN(N3)C2=O)C(C)C)C1 (atropisomer, axis not shown) [Example A467] | < 5000 nM | 10 to 100 nM | > 10000 nM | 1000 to 10000 nM | > 10000 nM | > 10000 nM | > 10000 nM | 1000 to 10000 nM | > 10000 nM | 100 to 1000 nM
9 | C=CC(=O)N1CC[C@H](C(=O)N(C)[C@H](C(=O)N[C@H]2Cc3cccc(c3)-c3ccc4c(c3)c(c(-c3cccnc3[C@H](C)OC)n4CC)CC(C)(C)COC(=O)[C@@H]3CCCN(N3)C2=O)C2COC2)C1 (atropisomer, axis not shown) [Example A469] | < 5000 nM | 100 to 1000 nM | 1000 to 10000 nM | 100 to 1000 nM | > 10000 nM | 1000 to 10000 nM | 1000 to 10000 nM | 1000 to 10000 nM | 1000 to 10000 nM | 100 to 1000 nM
10 | C=CC(=O)N1CC[C@]2(CCN([C@H](C(=O)N[C@H]3Cc4cccc(c4)-c4ccc5c(c4)c(c(-c4cccnc4[C@H](C)OC)n5CC)CC(C)(C)COC(=O)[C@@H]4CCCN(N4)C3=O)C(C)C)C2=O)C1 (atropisomer, axis not shown) [Example A470] | < 5000 nM | 10 to 100 nM | 1000 to 10000 nM | 100 to 1000 nM | 1000 to 10000 nM | 1000 to 10000 nM | 1000 to 10000 nM | 100 to 1000 nM | 100 to 1000 nM | 100 to 1000 nM
11 | C=CC(=O)N1CC[C@@]2(CCN([C@H](C(=O)N[C@H]3Cc4cccc(c4)-c4ccc5c(c4)c(c(-c4cccnc4[C@H](C)OC)n5CC)CC(C)(C)COC(=O)[C@@H]4CCCN(N4)C3=O)C(C)C)C2=O)C1 (atropisomer, axis not shown) [Example A471] | < 5000 nM | 10 to 100 nM | > 10000 nM | 100 to 1000 nM | > 10000 nM | 1000 to 10000 nM | > 10000 nM | 100 to 1000 nM | 1000 to 10000 nM | 100 to 1000 nM
12 | CCn1c(-c2cccnc2[C@H](C)OC)c2c3cc(ccc31)-c1csc(n1)C[C@H](NC(=O)CCOC1CN(C(=O)C#CC(C)(C)N3CCC3)C1)C(=O)N1CCC[C@H](N1)C(=O)OCC(C)(C)C2 (atropisomer, axis not shown) [Example A477] | < 5000 nM | 10 to 100 nM | > 10000 nM | < 10 nM | > 10000 nM | 1000 to 10000 nM | 1000 to 10000 nM | 1000 to 10000 nM | > 10000 nM | 10 to 100 nM
